Patent US7199097B1, “Peptide fragments having cell death inhibitory activity” (Juridical Foundation The Chemo-Sero-Therapeutic Research …, priority 1998, dated 2007)
Non-standard residues stand in square brackets, D forms with d. Sec = N[C@@H](C[SeH])C(=O)O

Columns and labels:
Assay type in all cases: cell-based, human
Dami cells [1] = assay: Cell death induced by fatty acid in serum free culture of Dami cells; conditions: for induction of cell death: 10 μM, serum free culture in the absence of selenoprotein P; for effective concentration inhibiting cell death: in the presence of 4 μM linoleic acid
Procedure: (§1) To 1 ml Dami cells (1×10^6 cells/dish/3 ml), which can be subcultured in serum free medium SFO3 (manufactured by Sanko Jun-yaku K. K.) containing 0.05 μM 2ME and 0.1% BSA, was added 2 ml 1:2:2 mixed medium (SA medium) of RPMI 1640/D-MEM/F-12. The cells were cultured for three days and recovered for assay. The cells were washed twice with SA/0.05% fatty acid free BSA (manufactured by Wako Jun-yaku K. K.) and suspended at 3×10^4 cells/ml in the same medium containing 2 to 16 μM arachidonic acid, linoleic acid or linolenic acid. The cell suspension was added to a 96-well plate in each 198 μl for wells for sample addition or in each 100 μl for wells for serial dilution.
To the wells for sample addition was added each 2 μl of 100 μM assay sample and, after stirring, a serial dilution was made with the wells containing 100 μl cell suspension. The plate was incubated at 37° C. in CO2 incubator for 4 to 5 days.

Dami cells [2] = assay: Comparison with other antioxidants: cell death in serum free culture of Dami cells in the presence of HSA
Procedure: It was estimated to what extent vitamin E, known as being useful as an antioxidant to lipid oxidation, and catalase, acting for removal of hydrogen peroxide, could inhibit cell death induced in the assay system of the present invention while serum free culture in the presence of HSA.
as §1, with “added […]” for “added 2”, “with 50% PBS/SA/0.03% HSA” for “with SA/0.05% fatty acid free BSA”, “by SIGMA)” for “by Wako Jun-yaku K. K.)”, “suspended” for “suspended at 3×10^4 cells/ml”, “medium at 3×10^4 cells/ml.” for “medium containing 2 to 16 μM arachidonic acid, linoleic acid or linolenic acid.”, “each 190” for “each 198”
To the wells for sample addition was added each 10 μl of assay sample, i.e. 20 μM vitamin E, catalase or the selenoprotein P fragment and, after stirring, a serial dilution was made with the wells containing 100 μl cell suspension. The plate was incubated at 37° C. in CO2 incubator for 4 to 5 days followed by estimation. For estimation, a sample concentration necessary for cell death inhibition was compared to each other on Day 4 and thereafter. […] The selenoprotein P fragment could inhibit cell death up to 60 pM. From the fact that vitamin E did inhibit cell death in the assay system of the present invention, it was estimated that peroxidization of fatty acids bound to HSA (SIGMA) might be responsible for cell death induction. Moreover, it was expected that the selenoprotein P fragment, which inhibited cell death more effectively than vitamin E, would also act much more efficiently to events to which vitamin E was know to be effective.

Dami cells [3] = assay: Cell death-inhibitory activity in Dami cells, serum free culture with HSA, serial dilution
Source text: For screening factors having the cell death-inhibitory activity, a culture system needs to be established where cell death is induced. […] A diluted sample of active fractions may be added to this culture system to thereby estimate the cell death-inhibitory activity.
Based on the assay system as described above, the present inventors have aimed at components within the living body, especially those derived from blood, and thoroughly investigated for searching the activity of interest. […] For the purpose of quantification of the cell death-inhibitory activity as used herein, dilution of not more than 100-folds is indicated as “0” while in case of dilution of more than 100-folds, a figure of said dilution per se is used for indicating the activity.
To 1 ml Dami cells (described in Greenberg S. M. et al., Blood, vol. 72, p. 1968–1977 (1988); 1×10^6 cells/dish/3 ml), which can be subcultured in serum free medium SFO3 (manufactured by Sanko Jun-yaku K. K.) containing 0.05 μM 2ME and 0.1% BSA, was added 2 ml 1:2:2 mixed medium (SA medium) of RPMI 1640/D-MEM/F-12. The cells were cultured for three days and recovered for assay. The cells were washed twice with 50% PBS/SA/0.03% HSA (manufactured by SIGMA) and suspended in the same medium at 3×10^4 cells/ml. The cell suspension was added to a 96-well plate in each 200 μl for wells for sample addition or in each 100 μl for wells for serial dilution. To the wells for sample addition was added 2 μl assay sample and, after stirring, a serial dilution was made with the wells containing 100 μl cell suspension. The plate was incubated at 37° C. in CO2 incubator for 4 to 5 days followed by estimation.

CCCCC/C=C\C/C=C\C/C=C\C/C=C\CCCCCC(=O)O [adrenic acid]
induction of cell death (Dami cells [1]): induced cell death

CCCCC/C=C\C/C=C\C/C=C\C/C=C\CCCC(=O)O [arachidonic acid]
induction of cell death (Dami cells [1]): induced cell death

CCCCC/C=C\C/C=C\C/C=C\CCCCCCC(=O)O [dihomo-γ-linolenic acid]
induction of cell death (Dami cells [1]): induced cell death

CCCCC/C=C\C/C=C\CCCCCCCC(=O)O [linoleic acid]
induction of cell death (Dami cells [1]): induced cell death

catalase
cell death-inhibitory activity (in words) (Dami cells [2]; serial dilution from 20 μM sample): no cell death-inhibitory activity

docosadienoic acid
induction of cell death (Dami cells [1]): induced cell death

docosatrienoic acid
induction of cell death (Dami cells [1]): induced cell death

eicosadienoic acid
induction of cell death (Dami cells [1]): induced cell death

superoxide dismutase
cell death-inhibitory activity (in words) (Dami cells [3]; each 70 μM of the samples): some activity | cell death-inhibitory activity relative to the peptide fragment of the present invention (Dami cells [3]; each 70 μM of the samples): about 1/100 | cell death-inhibitory activity relative to the peptide fragment of the present invention (Dami cells [3]; each 70 μM of the samples, listed as SOD): 1/100

vitamin E
inhibition of cell death at 60 nM (Dami cells [2]; 60 nM): could not | sample concentration up to which cell death is inhibited (Dami cells [2]; Day 4 and thereafter, serial dilution): 125 nM | effective concentration inhibiting cell death (Dami cells [1]): about 100 nM

B1: Full-length selenoprotein P: full-length selenoprotein P prepared from plasma with the antibody affinity column (protein)
chain: ESQDQSSLCKQPPAWSIRDQDPMLNSNGSVTVVALLQAS[Sec]YLCIIEASKLEDLRVKLKKEGYSNISYIVVNHQGISSRLKYTHLKNKVSEHIPVYQQEENQTDVWTLLNGSKDDFLIYDRCGRLVYHLGLPFSFLTFPYVEEAIKIAYCEKKCGNCSLTTLKDEDFCKRVSLATVDKTVETPSPHYHHEHHHNHGHQHLGSSELSENQQPGAPNAPTHPAPPGLHHHHKHKGQHRQGHPENRDMPASEDLQDLQKKLCRKRCINQLLCKLPTDSELAPRS[Sec]CCHCRHLIFEKTGSAIT[Sec]QCKENLPSLCS[Sec]QGLRAEENITESCQ[Sec]RLPPAA[Sec]QISQQLIPTEASAS[Sec]R[Sec]KNQAKK[Sec]E[Sec]PSN
modifications: ends and bridges not checked
effective concentration inhibiting cell death (Dami cells [1]): about 100 nM | Specific activity (Dami cells [3]; Table 3, activity per protein): <2500 | Activity (Dami cells [3]; Table 3, fold dilution up to which cells survive): <100 | cell death-inhibitory activity per proteins compared with the fragment (Dami cells [3]; purified with anti-selenoprotein P antibody column): much lower
